Reference: US20230312605A1, “PYRROLO[2,1-F][1,2,4]TRIAZINES AND PREPARATION AND USES THEREOF” (BioSplice Therapeutics, Inc., priority 2021, published 2023)

Legend:
[1] = target: recombinant DYRK1A kinase (Homo sapiens (Human), UniProt Q13627); experiment: DYRK1A kinase assay (Ser/Thr 18 peptide Z-lyte FRET assay); type: biochemical; conditions: recombinant DYRK1A 0.25 µg/mL, ATP 15 µM, Ser/Thr peptide 18 4 µM, one hour at room temperature; table head prints EC50, method says IC50
Procedure, shortened: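 Recombinant human DYRK1A (0.25 µg/mL) with 15 µM ATP and 4 µM Ser/Thr 18 peptide was incubated 1 h at room temperature with compound (11-point, 10 µM top), in duplicate. Z-lyte FRET read-out (coumarin/fluorescein emission ratio) was converted to percent phosphorylation; IC50 from non-linear regression.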

[2] = tested on: Tau phosphorylation at Thr212 (pThr212) in HEK293T cells transfected with DYRK1A and MAPT; experiment: phosphoTau (Thr212) AlphaLISA tau phosphorylation cell assay; type: cell-based; conditions: HEK-293T, HEK293T cells transiently transfected with human DYRK1A and MAPT, compound treatment 18-24 hours, read-out: pTau (Thr212) EC50
Experimental: Representative compounds were screened using the assay procedure for tau phosphorylation activity described below.
HEK293T cells (ATCC, CRL3216) cultured in DMEM (Thermo Fisher Scientific, 10566024) supplemented with 10% FBS (Corning, 35-011-CV) and Penicillin/Streptomycin (Thermo Fisher Scientific, 15140163) were seeded in a 75 cm^2 flask at 8.1 × 10^6 cells/flask. The HEK293T cells were then transiently transfected with 5 µg DYRK1A (NM_001396) human untagged clone (OriGene, SC314641) and 2.5 µg MAPT (441 a.a. Tau gene) (NM_005910) human untagged clone (OriGene, TP313312) using Lipofectamine 3000 (Thermo Fisher Scientific, L30000015) and incubated for 20-30 hours in a humidified incubator at 37° C. and 5% CO^2. Post-incubation, HEK293T cells transfected with the DYRK1A and MAPT expression vectors were harvested and seeded in BioCoat poly-D lysine coated 96-well plates (Corning, 354461) at 3 × 10^4 cells/well.
The above synthesized compounds were screened using the cell assay procedure to assess decreased Tau phosphorylation at Thr212 (pThr212) described below.
Each compound was dissolved in DMSO (Sigma-Aldrich, D8418-100 mL) as a 10 mM stock. 10 mM stocks were serially diluted 1:3, 10-point dose-response curve and added to the cells with a final concentration ranging from 20 µM to 1.1 nM. Cells were treated with compounds in duplicate and incubated for 18-24 hours in a humidified incubator at 37° C. and 5% CO^2.
Following the overnight compound treatment, cells were lysed with 1X Alpha Surefire Ultra Lysis Buffer (Perkin Elmer, ALSU-LB-100ML) complemented with 1X Halt Phosphatase Inhibitor Cocktail (Thermo Fisher Scientific, 78427) and 1X Halt Protease Inhibitor Cocktail (Thermo Fisher Scientific, 78438). Lysates were spun down at 12,000 g for 10 min to remove any cellular debris and 5 µL of lysates were dispensed into a 384-well Opti-Plate (Perkin Elmer, 6007290) for the measurement of Tau phosphorylation in the phosphoTau (Thr212) AlphaLISA assay. Donor antibody, biotinylated HT7Tau (Thermo Fisher Scientific, MN1000B), and acceptor antibody, pThr212Tau (Thermo Fisher Scientific, 44740G) were both added to the cell lysates at a final concentration of 3 nM and incubated for 1 hour at room temperature. Following incubation of the lysates with the donor and acceptor antibodies, anti-rabbit IgG(Fc specific) AlphaLISA acceptor beads (Perkin Elmer, AL104C) were added at a 10 ug/mL final concentration and incubated for 1 hour at room temperature protected from light. Lastly, AlphaScreen streptavidin donor beads (PerkinElmer, 6760002) were added at 40 ug/mL final concentration and incubated for 1 hour at room temperature protected from light. Plates were read at Ex= […], and Em=615 nm on the EnVision Multilabel Plate Reader (Perkin Elmer)
phospho-Tau (Thr212) AlphaLISA signal was used to plot, draw the curve fitting, and determine each compound’s EC50 in Prism (GraphPad).

SMILES	EC50 [1] [nM]	EC50 [2] [nM]
CO[C@H]1CC[C@@H](Nc2ncc3c(-c4ccc5nc(C)n(CC(F)F)c5n4)ccn3n2)CC1 [Compound 1111, 5-(3-(2,2-Difluoroethyl)-2-methyl-3H-imidazo[4,5-b]pyridin-5-yl)-N-(cis-4-methoxycyclohexyl)pyrrolo[2,1-f][1,2,4]triazin-2-amine]	3	71
c1cn2cc(-c3ccn4nc(NC5CC6(COC6)C5)ncc34)cnc2n1 [Compound 282, 5-(Imidazo[1,2-a]pyrimidin-6-yl)-N-(2-oxaspiro[3.3]heptan-6-yl)pyrrolo[2,1-f][1,2,4]triazin-2-amine]	7	172
COCCn1c(C)nc2ccc(-c3ccn4nc(NC5CCC(F)(F)CC5)ncc34)nc21 [Compound 1179, N-(4,4-Difluorocyclohexyl)-5-(3-(2-methoxyethyl)-2-methyl-3H-imidazo [4,5-b]pyridin-5-yl)pyrrolo[2,1-f][1,2,4]triazin-2-amine]	26	470
CO[C@H]1CC[C@@H](Nc2ncc3c(-c4ccc5nccnc5c4)ccn3n2)CC1 [Compound 1395, N-(cis-4-Methoxycyclohexyl)-5-(quinoxalin-6-yl)pyrrolo[2,1-f][1,2,4] triazin-2-amine]	11	380
O[C@H]1CC[C@@H](Nc2ncc3c(-c4ccc5nccnc5c4)ccn3n2)CC1 [Compound 1393, cis-4-((5-(Quinoxalin-6-yl)pyrrolo[2,1-f][1,2,4]triazin-2-yl)amino) cyclohexan-1-ol]	23	718
Cc1nc2ncc(-c3ccn4nc(NCC(C)(C)F)ncc34)cc2n1C(C)C [Compound 571, N-(2-Fluoro-2-methylpropyl)-5-(1-isopropyl-2-methyl-1H-imidazo[4,5-b]pyridin-6-yl)pyrrolo[2,1-f] [1,2,4]triazin-2-amine]	11	725
Cc1nc2ccc(-c3ccn4nc(NC5CCC(F)(F)CC5)ncc34)nc2n1CC(F)F [Compound 1108, N-(4,4-Difluorocyclohexyl)-5-(3-(2,2-difluoroethyl)-2-methyl-3H-imidazo [4,5-b]pyridin-5-yl)pyrrolo[2,1-f][1,2,4]triazin-2-amine]	8	126
Cc1nc2ncc(-c3ccn4nc(NCC(C)(C)F)ncc34)cc2n1C1CCOCC1 [Compound 784, N-(2-Fluoro-2-methylpropyl)-5-(2-methyl-1-(tetrahydro-2H-pyran-4-yl)-1H-imidazo[4,5-b]pyridin-6-yl)pyrrolo[2,1-f] [1,2,4]triazin-2-amine]	11	516
Cc1nc2ccc(-c3ccn4nc(NCC(C)(C)F)ncc34)nc2n1CC(F)F [Compound 1068, N-(2-Fluoro-2-methylpropyl)-5-(3-(2,2-difluoroethyl)-2-methyl-3H-imidazo[4,5-b]pyridin-5-yl)pyrrolo[2,1-f][1,2,4]triazin-2-amine]	4	159
N[C@H]1CC[C@@H](Nc2ncc3c(-c4ccc5ncccc5c4)ccn3n2)CC1 [Compound 1332, cis-N^1-(5-(Quinolin-6-yl)pyrrolo[2,1-f][1,2,4]triazin-2-yl)cyclohexane-1,4-diamine]	20	524
CC(C)(F)CNc1ncc2c(-c3cnc4nccn4c3)ccn2n1 [Compound 216, N-(2-Fluoro-2-methylpropyl)-5-(imidazo[1,2-a]pyrimidin-6-yl)pyrrolo[2,1-f] [1,2,4]triazin-2-amine]	12	455
FC1(F)CCC(Nc2ncc3c(-c4ccc5nccn5c4)ccn3n2)CC1 [Compound 43, N-(4,4-Difluorocyclohexyl)-5-(imidazo[1,2-a]pyridin-6-yl)pyrrolo[2,1-f] [1,2,4]triazin-2-amine]	19	504
CC(C)(F)CNc1ncc2c(-c3ccc4nccn4c3)ccn2n1 [Compound 3, N-(2-Fluoro-2-methylpropyl)-5-(imidazo[1,2-a]pyridin-6-yl)pyrrolo[2,1-f] [1,2,4]triazin-2-amine]	23	1840
Cc1nc2ccc(-c3ccn4nc(NCC(C)(C)F)ncc34)nc2n1C(C)C [Compound 1801, N-(2-Fluoro-2-methylpropyl)-5-(3-isopropyl-2-methyl-3H-imidazo[4,5-b]pyridin-5-yl)pyrrolo [2,1-f][1,2,4]triazin-2-amine]	5	152
c1cn2cc(-c3ccn4nc(NC5COC5)ncc34)ccc2n1 [Compound 65, 5-(Imidazo[1,2-a]pyridin-6-yl)-N-(oxetan-3-yl)pyrrolo[2,1-f][1,2,4]triazin-2-amine]	25	828
CO[C@H]1CC[C@@H](Nc2ncc3c(-c4cnc5nccn5c4)ccn3n2)CC1 [Compound 259, 5-(Imidazo[1,2-a]pyrimidin-6-yl)-N-(cis-4-methoxycyclohexyl)pyrrolo[2,1-f][1,2,4]triazin-2-amine]	7	150
CO[C@H]1C[C@@H](Nc2ncc3c(-c4ccc5nccn5c4)ccn3n2)C1 [Compound 26, 5-(Imidazo[1,2-a]pyridin-6-yl)-N-(cis-3-methoxycyclobutyl)pyrrolo[2,1-f] [1,2,4]triazin-2-amine]	11	238
FC1(CNc2ncc3c(-c4cnc5nccn5c4)ccn3n2)COC1 [Compound 228, N-((3 -Fluorooxetan-3-yl)methyl)-5-(imidazo [1,2-a]pyrimidin-6-yl)pyrrolo [2,1-f][1,2,4]triazin-2-amine]	13	292
Cc1nc2ncc(-c3ccn4nc(NC5CCN(CCC(F)(F)F)CC5)ncc34)cc2n1CC(F)F [Compound 1883, 5-(1-(2,2-Difluoroethyl)-2-methyl-1H-imidazo[4,5-b]pyridin-6-yl)-N-(1-(3,3,3-trifluoropropyl)piperidin-4-yl)pyrrolo[2,1-f][1,2,4]triazin-2-amine]	9	
Cc1nc2ccc(-c3ccn4nc(N[C@H]5CC[C@H](C(=O)N(C)C)CC5)ncc34)nc2n1CC(F)F [Compound 1895, trans-4-((5-(3-(2,2-Difluoroethyl)-2-methyl-3H-imidazo[4,5-b]pyridin-5-yl)pyrrolo[2,1-f] [1,2,4]triazin-2-yl)amino)-N,N-dimethylcyclohexane-1-carboxamide]	3	
CCO[C@H]1CC[C@@H](Nc2ncc3c(-c4ccc5nc(C)n(CC(F)F)c5n4)ccn3n2)CC1 [Compound 1115, N-(cis-4-Ethoxycyclohexyl)-5-(3-(2,2-difluoroethyl)-2-methyl-3H-imidazo [4,5-b]pyridin-5-yl)pyrrolo[2,1-f][1,2,4]triazin-2-amine]	3	
COCCO[C@H]1CC[C@H](Nc2ncc3c(-c4ccc5nc(C)n(CC(F)F)c5n4)ccn3n2)CC1 [Compound 1118, 5-(3-(2,2-Difluoroethyl)-2-methyl-3H-imidazo[4,5-b]pyridin-5-yl)-N-(trans-4-(2-methoxyethoxy)cyclohexyl)pyrrolo[2,1-f][1,2,4]triazin-2-amine]	5	
Cc1nc2ccc(-c3ccn4nc(NC5CCN(CCF)CC5)ncc34)nc2n1CC(F)F [Compound 1849]	7	
Cc1nc2ccc(-c3ccn4nc(NC5CC6(CCN(C)CC6)C5)ncc34)nc2n1CC(F)F [Compound 1836, 5-(3-(2,2-Difluoroethyl)-2-methyl-3H-imidazo[4,5-b]pyridin-5-yl)-N-(7-methyl-7-azaspiro[3.5]nonan-2-yl)pyrrolo[2,1-f][1,2,4]triazin-2-amine]	3	
